Assay results from patent publication US20240390383A1, “DIOXAZINES AND THEIR USE IN TREATMENT OF GBA-RELATED DISEASES” (ZEVRA DENMARK A/S, priority 2021, published 2024).

Target: T1, GCase (GBA) in human fibroblast cell line GM10915 harboring the L444P GBA mutation (Homo sapiens, UniProt P04062, L483P)
T1 construct: Human fibroblast cell line GM10915 harboring the L444P GBA mutation; host or cells: GM10915 human fibroblasts
T1 sequence (P04062 40-536 L483P): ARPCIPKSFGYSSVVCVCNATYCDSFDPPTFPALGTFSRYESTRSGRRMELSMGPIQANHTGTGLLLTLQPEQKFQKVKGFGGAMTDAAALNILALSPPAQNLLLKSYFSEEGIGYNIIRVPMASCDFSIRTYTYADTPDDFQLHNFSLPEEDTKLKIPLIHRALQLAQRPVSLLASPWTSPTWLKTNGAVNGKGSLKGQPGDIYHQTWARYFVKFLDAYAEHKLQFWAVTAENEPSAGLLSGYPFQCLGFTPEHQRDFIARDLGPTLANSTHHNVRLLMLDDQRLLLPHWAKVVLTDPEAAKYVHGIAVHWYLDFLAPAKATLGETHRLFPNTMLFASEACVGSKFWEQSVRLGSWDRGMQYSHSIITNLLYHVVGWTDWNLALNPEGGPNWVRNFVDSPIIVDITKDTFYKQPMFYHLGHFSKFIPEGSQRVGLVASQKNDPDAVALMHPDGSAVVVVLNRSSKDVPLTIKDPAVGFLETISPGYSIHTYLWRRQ
Test: GCase activity assay (4-MUG substrate, normalised to crystal violet staining) in L444P GBA fibroblasts
Type: cell-based
Settings: 5 days exposure; for GBA EC1.5: concentration giving 150% GCase activity (1.5-fold induction), 8-point dose range; for Emax: maximum percent GCase activity relative to untreated cells in the dose range tested
Method: Human fibroblast cell line GM10915 harboring the L444P GBA mutation was obtained from Coriell Biorepositories.
All chemicals (Glacial acetic acid, Glycine, 4-Methylumbelliferyl b-D-glucopyranoside (4-MUG), Sodium acetate trihydrate, Sodium hydroxide, Crystal violet, SDS, Ammonium hydroxide) were obtained from Sigma-Aldrich (Denmark) Compounds tested for GCase activity were dissolved in H2O or DMSO.
The GM10915 cell line was cultured under standard cell culture conditions (37° C. and 5% CO2) in complete DMEM medium supplemented with nonessential amino acids (NEAA), 1% Pen-Strep and 12% FCS. Cells were seeded at a density of 10^4 cells/well in 100 μL complete medium in one black 96-well plate for glucosylceramidase (GCase) activity measurement and in one clear 96-well plate for crystal violet staining to correct for cell density. Crystal violet staining is performed to obtain quantitative information about the relative density of cells adhering to multi-wells plates.
The assay was adapted from Sawkar et al (2002) and briefly described in the following. The day after seeding of cells, the medium was replaced with fresh medium containing the compounds to be tested. Compounds were tested in duplicate and in an 8-point diluted dose range to obtain a dose response. Cells were exposed with compounds for five days. Fresh compound was added every 2-3 days. PBS was included to define the basal level of GCase activity.
Cells were washed three times with 200 μL PBS per well and 50 μL of 2.5 mM 4-MUG buffer (4-MUG dissolved in 0.2 M acetate buffer pH 4.0) was added and the cells were incubated at 37° C., 5% CO2 for 23 hours. The reaction was stopped by adding 150 μL 0.2 M glycine buffer (pH 10.8). Fluorescence was measured with a Varioskan® Flash reader (Thermo Scientific) at an excitation/emission setting of 365/445 nm.
Cells were treated with compounds in a parallel setup identical to the setup to test for GCase activity. At the end of compound treatment, cells were washed once with 200 μL PBS per well and 50 μL 0.1% w/v crystal violet (in H2O) was added. Following 10 min. of incubation, the crystal violet solution was removed, and the cells were washed three times with 200 μL PBS and 100 μL 1% SDS was added to solubilize the stain. The plate was agitated on an orbital shaker for 10-30 min. Absorbance (A) is measured at […] using a Varioskan® Flash reader (Thermo Scientific).
The fluorescence signal (F) derived from the GCase measurement is normalized to the absorbance signal (A) derived from the crystal violet staining. The percent GCase activity resulting from compound treatment is calculated relative to the basal activity obtained from untreated cells.
Maximal effect of compounds (Emax) is determined from the dose response effects as the maximum “Percent GCase activity” achieved in the dose range tested.

## CC1(C2=NOCC(CN3CCCCC3)O2)CCCN1 (racemic) [compound 566, rac-3-(2-methylpyrrolidin-2-yl)-5-(piperidin-1-ylmethyl)-5,6-dihydro-1,4,2-dioxazine]
  GBA EC1.5: 36 µM
  Emax: 164%

## CC1(C2=NOCC(CN3CCCCC3)O2)CCNCC1 (racemic) [compound 568, rac-3-(4-methylpiperidin-4-yl)-5-(piperidin-1-ylmethyl)-5,6-dihydro-1,4,2-dioxazine]
  GBA EC1.5: 6 µM
  Emax: 281%

## C1CCN(CC2CON=C(C3(C4CCOCC4)CCNC3)O2)CC1 (racemic) [compound 583, rac-5-(piperidin-1-ylmethyl)-3-(3-(tetrahydro-2H-pyran-4-yl)pyrrolidin-3-yl)-5,6-dihydro-1,4,2-dioxazine]
  GBA EC1.5: 14 µM
  Emax: 188%

## COCC1(C2=NOCC(CN3CCCCC3)O2)CCNC1 (racemic) [compound 594, rac-3-(3-(methoxymethyl)pyrrolidin-3-yl)-5-(piperidin-1-ylmethyl)-5,6-dihydro-1,4,2-dioxazine]
  GBA EC1.5: 49 µM
  Emax: 152%

## CN1CCCC(C(C)(C)C2=NOCC(CN3CCCCC3)O2)C1 (racemic) [compound 595, rac-3-(2-(1-methylpiperidin-3-yl)propan-2-yl)-5-(piperidin-1-ylmethyl)-5,6-dihydro-1,4,2-dioxazine]
  GBA EC1.5: 6 µM
  Emax: 172%

## COC1(C2=NOCC(CN3CCCCC3)O2)CCNC1 (racemic) [compound 606, rac-3-(3-methoxypyrrolidin-3-yl)-5-(piperidin-1-ylmethyl)-5,6-dihydro-1,4,2-dioxazine]
  GBA EC1.5: 20 µM
  Emax: 292%

## NC1CCC(C2=NOCC(CN3CCCCC3)O2)CC1 (racemic) [compound 611, rac-4-(5-(piperidin-1-ylmethyl)-5,6-dihydro-1,4,2-dioxazin-3-yl)cyclohexan-1-amine]
  GBA EC1.5: 26 µM
  Emax: 299%

## CC1ON=C(C2CCNC2)OC1CN1CCCCC1 (racemic) [compound 616, rac-6-methyl-5-(piperidin-1-ylmethyl)-3-(pyrrolidin-3-yl)-5,6-dihydro-1,4,2-dioxazine]
  GBA EC1.5: 6 µM
  Emax: 390%

## CC1ON=C(C2CCN(C(C)C)C2)OC1CN1CCCCC1 (racemic) [compound 621, rac-3-(1-isopropylpyrrolidin-3-yl)-6-methyl-5-(piperidin-1-ylmethyl)-5,6-dihydro-1,4,2-dioxazine]
  GBA EC1.5: 10 µM
  Emax: 276%

## C[C@@H]1CC(C2=NOCC(CN3CCCCC3)O2)C[C@H](C)N1 (mixture of isomers) [compound 633, rac-3-((2R,6S)-2,6-dimethylpiperidin-4-yl)-5-(piperidin-1-ylmethyl)-5,6-dihydro-1,4,2-dioxazine]
  GBA EC1.5: 5 µM
  Emax: 226%

## CN(C)C12CCC(C3=NOCC(CN4CCCCC4)O3)(CC1)CC2 (racemic) [compound 640, rac-N,N-dimethyl-4-(5-(piperidin-1-ylmethyl)-5,6-dihydro-1,4,2-dioxazin-3-yl)bicyclo[2.2.2]octan-1-amine]
  GBA EC1.5: 6 µM
  Emax: 183%

## C1CCN(CC2CON=C(C34CCN(CC3)C4)O2)CC1 (racemic) [compound 641, rac-3-(1-azabicyclo[2.2.1]heptan-4-yl)-5-(piperidin-1-ylmethyl)-5,6-dihydro-1,4,2-dioxazine]
  GBA EC1.5: 3 µM
  Emax: 275%

## C1CCN(CC2CON=C(C34CCN(CC3)CC4)O2)CC1 (racemic) [compound 642, rac-5-(piperidin-1-ylmethyl)-3-(quinuclidin-4-yl)-5,6-dihydro-1,4,2-dioxazine]
  GBA EC1.5: 3 µM
  Emax: 282%

## c1cncc(CC2(C3=NOCC(CN4CCCCC4)O3)CCNC2)c1 (racemic) [compound 643, rac-5-(piperidin-1-ylmethyl)-3-(3-(pyridin-3-ylmethyl)pyrrolidin-3-yl)-5,6-dihydro-1,4,2-dioxazine]
  GBA EC1.5: 18 µM
  Emax: 178%

## C1CCN(CC2CON=C(C3CN4CCC3CC4)O2)CC1 (racemic) [compound 644, rac-5-(piperidin-1-ylmethyl)-3-(quinuclidin-3-yl)-5,6-dihydro-1,4,2-dioxazine]
  GBA EC1.5: 5 µM
  Emax: 264%

## CN1CCCC(C2=NOCC(CN3CCCCC3)O2)C1 (racemic) [compound 648, rac-3-(1-methylpiperidin-3-yl)-5-(piperidin-1-ylmethyl)-5,6-dihydro-1,4,2-dioxazine]
  GBA EC1.5: 4.3 µM
  Emax: 201%

## c1ncn2c1CC(C1=NOCC(CN3CCCCC3)O1)CC2 (racemic) [compound 655, rac-5-(piperidin-1-ylmethyl)-3-(5,6,7,8-tetrahydroimidazo[1,5-a]pyridin-7-yl)-5,6-dihydro-1,4,2-dioxazine]
  GBA EC1.5: 8 µM
  Emax: 232%

## c1cn2c(n1)CC(C1=NOCC(CN3CCCCC3)O1)CC2 (racemic) [compound 660, rac-5-(piperidin-1-ylmethyl)-3-(5,6,7,8-tetrahydroimidazo[1,2-a]pyridin-7-yl)-5,6-dihydro-1,4,2-dioxazine]
  GBA EC1.5: 9 µM
  Emax: 212%

## CC1(C2=NOCC(CN3CCC(F)(F)CC3)O2)CCNCC1 (racemic) [compound 673, rac-5-((4,4-difluoropiperidin-1-yl)methyl)-3-(4-methylpiperidin-4-yl)-5,6-dihydro-1,4,2-dioxazine]
  GBA EC1.5: 49 µM
  Emax: 151%

## COC1CNCC(C2=NOCC(CN3CCCCC3)O2)C1 (racemic) [compound 680, rac-3-(5-methoxypiperidin-3-yl)-5-(piperidin-1-ylmethyl)-5,6-dihydro-1,4,2-dioxazine]
  GBA EC1.5: 20 µM
  Emax: 209%

## COCCC1(C2=NOCC(CN3CCCCC3)O2)CCNC1 (racemic) [compound 685, rac-3-(3-(2-methoxyethyl)pyrrolidin-3-yl)-5-(piperidin-1-ylmethyl)-5,6-dihydro-1,4,2-dioxazine]
  GBA EC1.5: 12 µM
  Emax: 270%

## CC1(C)CNCC1C1=NOCC(CN2CCCCC2)O1 (racemic) [compound 688, rac-3-(4,4-dimethylpyrrolidin-3-yl)-5-(piperidin-1-ylmethyl)-5,6-dihydro-1,4,2-dioxazine]
  GBA EC1.5: 34 µM
  Emax: 152%

## COC1CNCCC1C1=NOCC(CN2CCCCC2)O1 (racemic) [compound 690, rac-3-(3-methoxypiperidin-4-yl)-5-(piperidin-1-ylmethyl)-5,6-dihydro-1,4,2-dioxazine]
  GBA EC1.5: 25 µM
  Emax: 205%

## CC(N)C(=O)N1CCC(C2=NOCC(CN3CCCCC3)O2)C1 (racemic) [compound 691, rac-2-amino-1-(3-(5-(piperidin-1-ylmethyl)-5,6-dihydro-1,4,2-dioxazin-3-yl)pyrrolidin-1-yl)propan-1-one]
  GBA EC1.5: 25 µM
  Emax: 252%

## NCC(=O)N1CCC(C2=NOCC(CN3CCCCC3)O2)C1 (racemic) [compound 699, rac-2-amino-1-(3-(5-(piperidin-1-ylmethyl)-5,6-dihydro-1,4,2-dioxazin-3-yl)pyrrolidin-1-yl)ethan-1-one]
  GBA EC1.5: 38 µM
  Emax: 203%
